Experimental data taken from US8183388B2, “Androgen receptor modulator and uses thereof” (Eli Lilly and Company, priority 2009, dated 2012).

Target: T1, human GR (glucocorticoid receptor) (Homo sapiens, UniProt P04150)
T1 construct: expressed in transfected cells; host or cells: HEK293 (lysate, 293-GR)
T1 sequence (P04150 1-777): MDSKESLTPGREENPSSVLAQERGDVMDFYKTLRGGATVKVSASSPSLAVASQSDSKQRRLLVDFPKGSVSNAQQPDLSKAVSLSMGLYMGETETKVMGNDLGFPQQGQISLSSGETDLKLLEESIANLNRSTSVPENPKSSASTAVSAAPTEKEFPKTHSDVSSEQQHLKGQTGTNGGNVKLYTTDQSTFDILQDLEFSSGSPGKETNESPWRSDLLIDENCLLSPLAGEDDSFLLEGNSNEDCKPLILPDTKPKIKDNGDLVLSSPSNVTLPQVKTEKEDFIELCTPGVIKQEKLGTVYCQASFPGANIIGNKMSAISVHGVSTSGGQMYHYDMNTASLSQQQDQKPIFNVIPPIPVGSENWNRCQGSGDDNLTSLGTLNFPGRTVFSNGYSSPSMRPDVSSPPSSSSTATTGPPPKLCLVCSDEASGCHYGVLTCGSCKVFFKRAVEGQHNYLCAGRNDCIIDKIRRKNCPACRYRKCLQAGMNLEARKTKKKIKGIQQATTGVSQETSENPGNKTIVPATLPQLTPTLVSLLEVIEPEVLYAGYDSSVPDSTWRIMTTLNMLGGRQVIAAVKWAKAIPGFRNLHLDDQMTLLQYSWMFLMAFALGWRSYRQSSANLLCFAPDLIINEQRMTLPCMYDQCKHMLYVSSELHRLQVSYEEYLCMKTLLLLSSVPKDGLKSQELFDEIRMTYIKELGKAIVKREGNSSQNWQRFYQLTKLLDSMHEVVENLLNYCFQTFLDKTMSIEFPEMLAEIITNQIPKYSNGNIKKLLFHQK
Assay: Steroid hormone nuclear receptor binding assay, GR
Conditions: HEK293 lysate overexpressing human GR, [3H]-dexamethasone
Experimental: Cell lysates from human embryonic kidney HEK293 cells overexpressing human MR (mineralocorticoid receptor), GR (glucocorticoid receptor), AR (androgen receptor), or PR (progesterone receptor) are used for receptor-ligand competition binding assays to determine Ki values. Typical procedures are provided below
Briefly, steroid receptor competition binding assays are run in a buffer containing 20 mM HEPES buffer (pH=7.6), 0.2 mM EDTA, 75 mM NaCl, 1.5 mM MgCl2, 20% glycerol, 20 mM sodium molybdate, 0.2 mM DTT (dithiothreitol), 20 μg/mL aprotinin and 20 μg/mL leupeptin (assay buffer). Typically, steroid receptor binding assays include radio-labeled ligands, such as 0.25 nM [^3H]-aldosterone for MR binding, 0.3 nM [^3H]-dexamethasone for GR binding, 0.36 nM [^3H]-methyltrienolone for AR binding, and 0.29 nM [^3H]-methyltrienolone for PR binding, and either 20 μg 293-MR lysate, 20 μg 293-GR lysate, 22 μg 293-AR lysate, or 40 μg 293-PR lysate per well. Assays are typically run in 96-well format. Competing test compounds are added at various concentrations ranging from about 0.01 nM to 10 μM. Non-specific binding is determined in the presence of 500 nM aldosterone for MR binding, 500 nM dexamethasone for GR binding, or 500 nM methyltrienolone for AR and PR binding. […] After an incubation of 2 hours, plates are read in a Wallac Microbeta counter. […]

CC(C)OC(=O)N[C@H]1Cc2c(n(C[C@H]3OCC[C@@H]3O)c3ccc(C#N)cc23)C1 [compound of Formula (I), [(S)-7-Cyano-4-((2R,3S)-3-hydroxytetrahydrofuran-2-ylmethyl)-1,2,3,4-tetrahydrocyclopenta[b]indol-2-yl]-carbamic acid isopropyl ester]
Ki: > 2 µM
